Results from patent publication US20220119355A1, “SATURATED-RING-FUSED DIHYDROPYRIMIDINONE OR DIHYDROTRIAZINONE COMPOUNDS AND PHARMACEUTICAL USE THEREOF” (Japan Tobacco Inc., priority 2018, published 2022).

Tests used:
[1] = molecular target: T1, human RORγ (Homo sapiens, UniProt P51449); assay: In-vitro reporter gene assay for inhibitory activity against RORγ transcription, Test Method A (GAL4-hRORγ LBD / pG5-Luc in CHO cells); assay type: cell-based; settings: luciferase reporter, 2 days
T1 construct: from Ser253 to Lys518 for human RORγ; expressed in transfected cells; host or cells: CHO cells (transient co-transfection with pG5-Luc)
T1 sequence (P51449 253-518): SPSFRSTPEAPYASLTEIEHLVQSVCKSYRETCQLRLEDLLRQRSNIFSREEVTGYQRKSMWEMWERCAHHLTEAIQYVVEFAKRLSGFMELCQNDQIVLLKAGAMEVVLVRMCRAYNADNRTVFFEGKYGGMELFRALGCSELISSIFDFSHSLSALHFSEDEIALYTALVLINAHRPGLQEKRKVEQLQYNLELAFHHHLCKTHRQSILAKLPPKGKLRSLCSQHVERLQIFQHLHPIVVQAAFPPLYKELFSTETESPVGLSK
Description: (§1) In-Vitro Assay for Inhibitory Activity Against RORγ Transcription
(§2) Inhibitory activity against RORγ transcription was assessed for test compounds by either of the following Test Method A or B of reporter gene assay.
(§3) cDNAs encoding human and mouse RORγ ligand binding domains (LBD) were obtained based on the sequences of human RORγ (Genbank registered number NM_005060.3) and mouse RORγ (Genbank registered number NM_011281.2) (LBD sequences: from Ser253 to Lys518 for human RORγ; from Ile251 to Lys516 for mouse RORγ).
(§4) LBD cDNAs of human and mouse RORγ were inserted into pFA-CMV vector (Stratagene), which expresses GAL4-DNA binding domain fusion protein. The resulting plasmids are hereinafter referred to as GAL4-hRORγ plasmid and GAL4-mRORγ plasmid, respectively.
(§5) GAL4-hRORγ plasmid or GAL4-mRORγ plasmid was transiently co-transfected into Chinese hamster ovary cells (CHO cells) with pG5-Luc (Promega), reporter plasmid expressing firefly luciferase in a GAL4-dependent manner.
(§6) TransIT (Registered trademark) CHO Transfection Kit (Mirus) was used to co-transfect CHO cells with the plasmids. One day prior to the assay, CHO cells were suspended in HAM F-12 Nutrient medium containing 10% (v/v) fetal bovine serum and seeded at 6×10^6 cells per 175 cm^2 cell culture flask each. 54 μL of TransIT (Registered trademark) CHO reagent was added into a 15 mL tube containing 1.16 mL of HAM F-12 Nutrient medium without fetal bovine serum, and then mixed and incubated at room temperature for 10 minutes. 36 μL of a plasmid solution containing 400 ng of GAL4-hRORγ plasmid, 9000 ng of pG5-Luc plasmid, and 8600 ng of pcDNA3 plasmid were added into the tube and mixed gently. In the case of mouse assay, a plasmid solution containing 250 ng of GAL4-mRORγ plasmid, 9000 ng of pG5-Luc plasmid, and 8750 ng of pcDNA3 plasmid was added, instead. The mixture was incubated at room temperature for 10 minutes. 9 μL each of CHO Mojo Reagent were then added into each tube and mixed gently. The mixture was incubated at room temperature for 10 minutes. The resulting transfection reagent was applied to the cell culture. After incubation at 37° C., 5% CO2 for 4 hours, the plasmid-transfected CHO cells were harvested by trypsin treatment. The collected cells were resuspended in culture medium and plated into a 384-well-white plate at 8,000 cells/50 μL/well. The plate was let stand at room temperature for 1 hour and then further incubated at 37° C., 5% CO2 for 3 hours. A test compound was dissolved in DMSO to obtain a concentration of 10 mM. Each solution was serially diluted with DMSO and further diluted with culture medium just before use. The test compound solutions were added. to the cells in the plate at 8 different concentrations. The final concentration of DMSO was 0.2% (v/v). After the addition of test compound, the cells were incubated at […], 5% CO2 for 2 days.
(§7) RORγ transcriptional activity was detected as the intracellular luciferase activity using SteadyLite HTS Reporter Gene Assay System (Perkin Elmer). SteadyLite Reagent was diluted five-fold with Extension buffer (10 mM Tricine, 0.2% (w/v) bovine serum albumin, 0.02% (v/v) Tween-20) to obtain a luciferase substrate solution. After the measurement of the cell viability with Resazurin, the medium was removed in the plate and the luciferase substrate solution was added thereto. After the incubation at room temperature for 10 minutes, luminescence of each well was measured with a microplate reader. The luciferase activity derived from the luminescence count in a vehicle-control well treated with 0.2% DMSO alone was defined as 100%, and the luciferase activity after treatment with the test compound was calculated as a percentage, %-of-control, based on the value of the vehicle-control. An EC50 value of the test compound was calculated by curve fitting with GraphPad Prism. The luminescence counts at the concentration of test compound where cytotoxicity was observed were excluded from data analysis. […]

[2] = molecular target: T2, mouse RORγ (Mus musculus, UniProt P51450); assay: In-vitro reporter gene assay for inhibitory activity against RORγ transcription, Test Method A (GAL4-mRORγ LBD / pG5-Luc in CHO cells); assay type: cell-based; settings: luciferase reporter, 2 days
T2 construct: from Ile251 to Lys516 for mouse RORγ; expressed in transfected cells; host or cells: CHO cells (transient co-transfection with pG5-Luc)
T2 sequence (P51450 251-516): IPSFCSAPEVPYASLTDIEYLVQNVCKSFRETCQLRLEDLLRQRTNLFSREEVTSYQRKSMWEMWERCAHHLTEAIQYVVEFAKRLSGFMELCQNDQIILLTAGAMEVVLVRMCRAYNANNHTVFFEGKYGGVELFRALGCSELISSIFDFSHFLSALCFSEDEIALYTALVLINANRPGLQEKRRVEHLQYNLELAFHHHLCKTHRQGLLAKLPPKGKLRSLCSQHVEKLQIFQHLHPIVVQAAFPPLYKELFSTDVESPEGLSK
Description: as §1, §2, §3, §4, §5, §6, §7

EC50 [1] [µM]	EC50 [2] [µM]	Compound
1.69	0.536	CC(C)(C)COc1ccc(C23CCCC2=NNC(=O)N3)cc1Cl (racemic) [Example 1, 4a-[3-Chloro-4-(2,2-dimethyl-propoxy)phenyl]-2,4,4a,5,6,7-hexahydro-cyclopenta[1,2,4]triazin-3-one]
0.03	0.022	CC(C)(C)CCc1ccc(C23CCC(C)(C)C2=CN(CCCC(=O)O)C(=O)N3)cc1 (racemic) [Example 2]
5.7	5.37	CCOC(=O)CCN1C=C2CN(C(=O)OC(C)(C)C)CC2(c2ccc(CCC(C)(C)C)c(Cl)c2)NC1=O (racemic) [Example 13]
2.88	3.8	CC(=O)N1CC2=CN(CCC(=O)O)C(=O)NC2(c2ccc(CCC(C)(C)C)c(Cl)c2)C1 (racemic) [Example 14]
0.224	0.106	CC(C)(C)CCc1ccc(C23CCCC2=CNC(=O)N3)cc1Cl (racemic) [Example 23]
0.332	0.126	CC(C)(C)CCc1ccc(C23CCCC2=CN(CCC(=O)O)C(=O)N3)cc1Cl (racemic) [Example 24]
> 20	> 20	CC(=O)NCC1CCC2(c3ccc(CCC(C)(C)C)c(Cl)c3)NC(=O)N(CCC(=O)O)C=C12 (racemic) [Example 30]
0.048	0.048	CC(C)(C)CCc1ccc(C23CCC(CC#N)C2=CN(CCC(=O)O)C(=O)N3)cc1Cl (racemic) [Example 31]
0.435	0.071	CC(C)(C)COc1ccc(C23CCCCC2=NNC(=O)N3)cc1Cl (racemic) [Example 36]
0.032	0.021	CC(C)(C)CCc1ccc(C23CCCCC2=CN(CCC(=O)O)C(=O)N3)cc1Cl (racemic) [Example 39]
0.29	0.139	CC1=C2CCCCC2(c2ccc(CCC(C)(C)C)c(Cl)c2)NC(=O)N1CCC(=O)O (racemic) [Example 42]
0.043	0.159	CC(C)(C)CCc1ccc(C23CCCC(CCOCc4ccccc4)C2=CN(CCC(=O)O)C(=O)N3)cc1Cl (racemic) [Example 43]
1.27	0.482	CC(C)(C)CCc1ccc(C23CCCC(CCO)C2=CN(CCC(=O)O)C(=O)N3)cc1Cl (racemic) [Example 44]
1.63	0.84	CCOC(=O)CCN1C=C2C(CC(=O)O)CCCC2(c2ccc(CCC(C)(C)C)c(Cl)c2)NC1=O (racemic) [Example 45]
0.302	0.211	COCCC1CCCC2(c3ccc(CCC(C)(C)C)c(Cl)c3)NC(=O)N(CCC(=O)O)C=C12 (racemic) [Example 46]
> 8	8.83	CCOC(=O)CCN1C=C2C(CN)CCCC2(c2ccc(CCC(C)(C)C)c(Cl)c2)NC1=O (racemic) [Example 47]
1.99	1.87	CC(C)(C)CCc1ccc(C23CCCC(CCOS(C)(=O)=O)C2=CN(CCC(=O)O)C(=O)N3)cc1Cl (racemic) [Example 48]
> 3.2	> 3.2	CCOC(=O)CCN1C=C2C(CCNC)CCCC2(c2ccc(CCC(C)(C)C)c(Cl)c2)NC1=O (racemic) [Example 49]

EC50 [1] [µM]	EC50 [2] [µM]	Compound
> 8	7.48	CCOC(=O)CCN1C=C2C(CCN(C)C)CCCC2(c2ccc(CCC(C)(C)C)c(Cl)c2)NC1=O (racemic) [Example 50]
4.97	1.8	CC(C)(C)CCc1ccc(C23CCCC(CC(N)=O)C2=CN(CCC(=O)O)C(=O)N3)cc1Cl (racemic) [Example 51]
0.018	0.029	CC(C)(C)CCc1ccc(C23CCCC(CC#N)C2=CN(CCC(=O)O)C(=O)N3)cc1Cl (racemic) [Example 52]
0.093	0.058	CC(C)(C)CCc1ccc(C23CCCC(CO)C2=CN(CCC(=O)O)C(=O)N3)cc1Cl (racemic) [Example 55]
0.02	0.029	COCC1CCCC2(c3ccc(CCC(C)(C)C)c(Cl)c3)NC(=O)N(CCC(=O)O)C=C12 (racemic) [Example 56]
0.034	0.021	CC1CCCC2(c3ccc(CCC(C)(C)C)c(Cl)c3)NC(=O)N(CCC(=O)O)C=C12 (racemic) [Example 57]
0.033	0.02	CC(C)(C)CCc1ccc(C23COCCC2=CN(CCC(=O)O)C(=O)N3)cc1Cl (racemic) [Example 58]
0.279	0.149	CC(C)CCOc1ccc(C23CCCCC2=CN(CCC(=O)O)C(=O)N3)cc1Cl (racemic) [Example 59]
0.118	0.072	CC(C)(C)COc1ccc(C23CCCCC2=CN(CCC(=O)O)C(=O)N3)cc1Cl (racemic) [Example 60]
0.106	0.068	CC(C)(C)CCOc1ccc(C23CCCCC2=CN(CCC(=O)O)C(=O)N3)cc1Cl (racemic) [Example 61]
0.151	0.099	O=C(O)CCN1C=C2CCCCC2(c2ccc(OCCC3CCC3)c(Cl)c2)NC1=O (racemic) [Example 62]
0.022	0.022	CC(C)(C)CCc1ccc(C23CCC(F)(F)CC2=CN(CCC(=O)O)C(=O)N3)cc1Cl (racemic) [Example 63]
0.034	0.052	CC(C)(C)CCc1ccc(C23CC(C)(C)CCC2=CN(CCC(=O)O)C(=O)N3)cc1Cl (racemic) [Example 64]
1.16	0.16	O=C(O)CCN1C=C2CCCCC2(c2ccc(OCC3(C(F)(F)F)CC3)c(Cl)c2)NC1=O (racemic) [Example 65]
0.014	0.027	CC1CCCC2(c3ccc(CCC(C)(C)C)c(Cl)c3)NC(=O)N(C34CC(C(=O)O)(C3)C4)C=C12 (racemic) [Example 73]
0.016	0.024	CC(C)(C)CCc1ccc(C23CCC(C)(C)CC2=CN(CCC(=O)O)C(=O)N3)cc1Cl (racemic) [Example 74]
0.008	0.013	CC(C)(C)CCc1ccc(C23CCC(C)(C)C2=CN(CCC(=O)O)C(=O)N3)cc1Cl (single isomer, unassigned) [Example 3, 3-{7a-[3-Chloro-4-(3,3-dimethyl-butyl)phenyl]-5,5-dimethyl-2-oxo-1,2,5,6,7,7a-hexahydro-cyclopentapyrimidin-3-yl}propionate]
1.02	1.01	CC(C)(C)CCc1ccc(C23CCC(C)(C)C2=CN(CCC(=O)O)C(=O)N3)cc1Cl (single isomer, unassigned) [Example 4]
